Among the data in PMC10896221, “Elucidating the glycan-binding specificity and structure of Cucumis melo agglutinin, a new R-type lectin” (Beilstein Journal of Organic Chemistry, 2024) are Kd and IC50 values, retold here.

Usually Kd stands for the free concentration of one partner at which half of the binding sites on the other are occupied at equilibrium, for simple one-to-one binding. For orientation: IC50 means the concentration that inhibits the measured activity by half. Higher therefore signals weaker potency.

Assay [1] has as its target T1, Cucumis melo agglutinin (CMA1) (Cucumis melo, UniProt A0A1S4E5V9, L33V).
T1 construct: gene LOC107992255; CMA1-Nter, N-terminal domain (6–132 in mature protein)
The assay can be described thus: X-ray crystal structure ([…] Å) and ITC; thermal shift with full-length protein. It is filed as binding.

The target in assay [2] is T2, Cucumis melo agglutinin (CMA1) (Cucumis melo, UniProt A0A1S4E5V9).
T2 construct: gene LOC107992255; full-length CMA1, both CBM13 domains; probably CHO-S expressed with C-terminal His6
As to the kind of experiment: X-ray crystal structure ([…] Å); SPR competition on GalNAc chip. It is filed as binding.

T1 sequence (A0A1S4E5V9 entry or part of it L33V): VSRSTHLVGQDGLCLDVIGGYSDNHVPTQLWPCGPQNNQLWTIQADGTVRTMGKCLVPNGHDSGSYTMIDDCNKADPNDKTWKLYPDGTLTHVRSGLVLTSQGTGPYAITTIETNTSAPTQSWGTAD
T2 sequence (A0A1S4E5V9 entry or part of it): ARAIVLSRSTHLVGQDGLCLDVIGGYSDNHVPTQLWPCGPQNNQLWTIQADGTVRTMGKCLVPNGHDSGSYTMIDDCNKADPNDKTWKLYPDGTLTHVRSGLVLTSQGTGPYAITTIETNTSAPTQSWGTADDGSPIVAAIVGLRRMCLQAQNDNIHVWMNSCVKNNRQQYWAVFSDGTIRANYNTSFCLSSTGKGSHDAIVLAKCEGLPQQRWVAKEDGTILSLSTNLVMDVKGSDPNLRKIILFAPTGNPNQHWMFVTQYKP

With `CC(=O)N[C@@H]1[C@@H](O)[C@@H](O)[C@@H](CO)O[C@H]1O` [GalNAc], the Kd in assay [1] came out at 940 µM.

Turning to `CC(=O)N[C@@H]1[C@@H](O)[C@H](O[C@@H]2O[C@H](CO)[C@H](O)[C@H](O)[C@H]2O)[C@@H](CO)O[C@@H]1O` [LacNAc, N-acetyllactosamine], the IC50 in assay [2] was determined as 1400 nM.
